Measurements taken from US20200131159A1, “POSITIVE ALLOSTERIC MODULATORS OF THE MUSCARINIC ACETYLCHOLINE RECEPTOR M1” (Vanderbilt University, priority 2018, published 2020).

Target: T1, human mAChR M1 (Homo sapiens, UniProt P11229)
T1 construct: hM1 and hM4 cDNAs were purchased from Missouri S&T cDNA Resource; host or cells: CHO-K1 cells, stably transfected with Lipofectamine2000
T1 sequence (P11229 1-460): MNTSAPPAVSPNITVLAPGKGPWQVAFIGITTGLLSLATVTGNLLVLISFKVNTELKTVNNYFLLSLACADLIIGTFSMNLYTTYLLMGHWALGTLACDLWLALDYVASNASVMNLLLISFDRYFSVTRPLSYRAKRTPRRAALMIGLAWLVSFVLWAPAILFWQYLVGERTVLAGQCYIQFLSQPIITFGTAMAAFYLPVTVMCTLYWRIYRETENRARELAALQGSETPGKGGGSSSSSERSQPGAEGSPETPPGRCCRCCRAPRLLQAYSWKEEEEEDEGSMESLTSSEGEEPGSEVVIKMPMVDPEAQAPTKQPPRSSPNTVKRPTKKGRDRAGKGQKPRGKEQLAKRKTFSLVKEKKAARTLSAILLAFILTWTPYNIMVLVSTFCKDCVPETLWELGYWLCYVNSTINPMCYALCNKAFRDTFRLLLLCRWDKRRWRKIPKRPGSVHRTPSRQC
Assay: mAChR M1 cell-based functional assay (calcium mobilization, PAM mode, EC20 acetylcholine)
Conditions: CHO-K1 cells expressing hM1, calcium flux (Fluo-4); for Emax: EC20 acetylcholine response; for EC50: concentration-dependent increase in the EC20 acetylcholine response
Source text: Chinese hamster ovary (CHO-K1) cells stably expressing rat (r)M1 were purchased from the American Type Culture Collection and cultured according to their indicated protocol. CHO cells stably expressing human (h)M2, hM3, and hM5 were described previously (Levey, et al., 1991); hM1 and hM4 cDNAs were purchased from Missouri S&T cDNA Resource; rM4 cDNA was provided by T. I. Bonner (National Institutes of Health, Bethesda, Md.). rM2 and rM3 were cloned from a rat brain cDNA library and sequence verified. hM1, rM2, rM3, hM4, and rM4 cDNAs were used to stably transfect CHO-K1 cells purchased from the American Type Culture Collection using Lipofectamine2000. To make stable rM2, hM2, rM3, hM4, and rM4 cell lines for use in calcium mobilization assays, these cells also were stably transfected with a chimeric G-protein (Gqi5) (provided by B. R. Conklin, University of California, San Francisco) using Lipofectamine 2000. rM1, hM1, rM3, hM3, rM5, and hM5 cells were grown in Ham's F-12 medium containing 10% heat-inactivated fetal bovine serum (FBS), 20 mM HEPES, and 50 µg/mL G418 sulfate. rM2-Gqi5, hM2-Gqi5, and hM4-Gqi5 cells were grown in the same medium also containing 500 μg/mL Hygromycin B. Stable rM4-Gqi5 cells were grown in DMEM containing 10% heat-inactivated FBS, 20 mM HEPES, 400 μg/mL G418 sulfate, and 500 μg/mL Hygromycin B.
For high throughput measurement of agonist-evoked increases in intracellular calcium, CHO-K1 cells stably expressing muscarinic receptors were plated in growth medium lacking G418 and hygromycin at 15,000 cells/20 μL/well in Greiner 384-well black-walled, tissue culture (TC)-treated, clear-bottom plates (VWR). Cells were incubated overnight at 37° C. and 5% CO2. The next day, cells were washed using an ELX 405 (BioTek) with four washes (80 μL) of assay buffer then aspirated to 20 μL. Next, 20 μL of 16 μM Fluo-4/acetoxymethyl ester (Invitrogen, Carlsbad, Calif.) prepared as a 2.3 mM stock in DMSO and mixed in a 1:1 ratio with 10% (w/v) Pluronic F-127 and diluted in assay buffer was added to the wells and the cell plates were incubated for 50 min at 37° C. and 5% CO2. Dye was removed by washing with the ELX 405 (four 80 μL washes of assay buffer) then aspirated to 20 μL. Compound master plates were formatted in an 11 point CRC format (1:3 dilutions) in 100% DMSO with a starting concentration of 10 mM using the BRAVO liquid handler (Agilent). Test compound CRCs were then transferred to daughter plates (240 nL) using the Echo acoustic plate reformatter (Labcyte, Sunnyvale, Calif.) and then diluted into assay buffer (40 μL) to a 2× stock using a Thermo Fisher Combi (Thermo Fisher Scientific, Waltham, Mass.).
Calcium flux was measured using the Functional Drug Screening System (FDSS) 6000 (Hamamatsu Corporation, Tokyo, Japan) as an increase in the fluorescent static ratio. Compounds were applied to cells (20 μL, 2×) using the automated system of the FDSS 6000 at 4 s into the 300 s protocol and the data were collected at 1 Hz. […] Agonist activity was analyzed as a concentration-dependent increase in calcium mobilization upon compound addition. Emax values for agonist activity are expressed relative to the maximum for acetylcholine. Positive allosteric modulator activity was analyzed as a concentration-dependent increase in the EC20 acetylcholine response. Antagonist activity was analyzed as a concentration-dependent decrease in the […] acetylcholine response. Concentration-response curves were generated using a four-parameter logistical equation in XLfit curve fitting software (IDBS, Bridgewater, N.J.) for Excel (Microsoft, Redmond, Wash.) or Prism (GraphPad Software, Inc., San Diego, Calif.).
Activity (EC50 and Emax) was determined in the mAChR M1 cell-based functional assay as described above and the data are shown in Table 2. The compound numbers correspond to the compound numbers used in Table 1.

SMILES	Emax [%]	EC50 [µM]
O=C(N[C@H]1CC[C@@H]1O)c1cc(Cc2ccc(-n3cccn3)cc2)cc2cccnc12 [compound 6, N-[(1S,2S)-2-hydroxycyclobutyl]-6-[(4-pyrazol-1-ylphenyl)methyl]quinoline-8-carboxamide]	57	5.49
Cc1nc(-c2ccc(Cc3cc(C(=O)N[C@H]4CCOC[C@@H]4O)c4ncccc4c3C)cc2)co1 [compound 32, N-[(3R,4S)-3-hydroxytetrahydropyran-4-yl]-5-methyl-6-[[4-(2-methyloxazol-4-yl)phenyl]methyl]quinoline-8-carboxamide]	69	0.336
Cn1ccc(-c2ccc(Cc3cc(C(=O)N[C@H]4CCCCC[C@@H]4O)c4ncccc4c3)cn2)n1 [compound 10, N-[(1S,2S)-2-hydroxycycloheptyl]-6-[[6-(1-methylpyrazol-3-yl)-3-pyridyl]methyl]quinoline-8-carboxamide]	84	0.922
Cc1c(Cc2ccc(-c3ccn(C)n3)nc2)cc(C(=O)N[C@H]2CCOC[C@@H]2O)c2ncccc12 [compound 29, N-[(3R,4S)-3-hydroxytetrahydropyran-4-yl]-5-methyl-6-[[6-(1-methylpyrazol-3-yl)-3-pyridyl]methyl]quinoline-8-carboxamide]	72	0.197
Cc1c(Cc2ccc(-n3cccn3)cc2)cc(C(=O)N[C@H]2CCC[C@@H]2O)c2ncccc12 [compound 26, N-[(1S,2S)-2-hydroxycyclopentyl]-5-methyl-6-[(4-pyrazol-1-ylphenyl)methyl]quinoline-8-carboxamide]	81	0.958
O=C(N[C@H]1CCC[C@@H]1O)c1cc(Cc2ccc(-n3cccn3)cc2)cc2cccnc12 [compound 5, N-[(1S,2S)-2-hydroxycyclopentyl]-6-[(4-pyrazol-1-ylphenyl)methyl]quinoline-8-carboxamide]	76	1.66
Cn1cc2c(-c3cc(F)c(Cc4cc(C(=O)N[C@H]5CCOC[C@@H]5O)c5ncccc5c4)c(F)c3)cccc2n1 [compound 21, 6-[[2,6-difluoro-4-(2-methylindazol-4-yl)phenyl]methyl]-N-[(3R,4S)-3-hydroxytetrahydropyran-4-yl]quinoline-8-carboxamide]	67	3.14
Cc1c(Cc2ccc(-n3cccn3)cc2)cc(C(=O)NC2CCOCC2)c2ncccc12 [compound 28, 5-methyl-6-[(4-pyrazol-1-ylphenyl)methyl]-N-tetrahydropyran-4-yl-quinoline-8-carboxamide]	41	2.25
Cc1c(Cc2ccc(-n3cccn3)cc2)cc(C(=O)N[C@H]2CCOC[C@@H]2O)c2ncccc12 [compound 23, N-[(3R,4S)-3-hydroxytetrahydropyran-4-yl]-5-methyl-6-[(4-pyrazol-1-ylphenyl)methyl]quinoline-8-carboxamide]	77	0.108
Cc1c(Cc2ccc(-c3ccn(C)n3)nc2)cc(C(=O)NC2CCOCC2)c2ncccc12 [compound 31, 5-methyl-6-[[6-(1-methylpyrazol-3-yl)-3-pyridyl]methyl]-N-tetrahydropyran-4-yl-quinoline-8-carboxamide]	67	4.39
Cc1nc(-c2ccc(Cc3cc(C(=O)N[C@H]4CCCC[C@@H]4O)c4ncccc4c3)cc2)co1 [compound 18, N-[(1S,2S)-2-hydroxycyclohexyl]-6-[[4-(2-methyloxazol-4-yl)phenyl]methyl]quinoline-8-carboxamide]	82	0.784
Cc1c(Cc2ccc(-n3cccn3)cc2)cc(C(=O)N[C@H]2CCCC[C@@H]2O)c2ncccc12 [compound 25, N-[(1S,2S)-2-hydroxycyclohexyl]-5-methyl-6-[(4-pyrazol-1-ylphenyl)methyl]quinoline-8-carboxamide]	81	0.386
O=C(N[C@H]1CCOC[C@@H]1O)c1cc(Cc2ccc(-n3cccn3)cc2)cc2cccnc12 [compound 1, N-[(3R,4S)-3-hydroxytetrahydropyran-4-yl]-6-[(4-pyrazol-1-ylphenyl)methyl]quinoline-8-carboxamide]	80	0.46
Cn1ccc(-c2ccc(Cc3cc(C(=O)N[C@H]4CCC[C@@H]4O)c4ncccc4c3)cn2)n1 [compound 12, N-[(1S,2S)-2-hydroxycyclopentyl]-6-[[6-(1-methylpyrazol-3-yl)-3-pyridyl]methyl]quinoline-8-carboxamide]	82	1.39

Further lines, results first:

Emax [%]	EC50 [µM]	SMILES
72	0.356	Cc1c(Cc2ccc(-c3ccn(C)n3)nc2)cc(C(=O)N[C@H]2CCCC[C@@H]2O)c2ncccc12 [compound 30, N-[(1S,2S)-2-hydroxycyclohexyl]-5-methyl-6-[[6-(1-methylpyrazol-3-yl)-3-pyridyl]methyl]quinoline-8-carboxamide]
82	0.384	Cn1ccc(-c2ccc(Cc3cc(C(=O)N[C@H]4CCCC[C@@H]4O)c4ncccc4c3)cn2)n1 [compound 11, N-[(1S,2S)-2-hydroxycyclohexyl]-6-[[6-(1-methylpyrazol-3-yl)-3-pyridyl]methyl]quinoline-8-carboxamide]
73	5.29	Cn1ccc(-c2ccc(Cc3cc(C(=O)NC4CC5(COC5)C4)c4ncccc4c3)cn2)n1 [compound 14, 6-[[6-(1-methylpyrazol-3-yl)-3-pyridyl]methyl]-N-(2-oxaspiro[3.3]heptan-6-yl)quinoline-8-carboxamide]
48	4.36	Cc1nc(-c2ccc(Cc3cc(C(=O)NC4CC5(COC5)C4)c4ncccc4c3)cc2)co1 [compound 20, 6-[[4-(2-methyloxazol-4-yl)phenyl]methyl]-N-(2-oxaspiro[3.3]heptan-6-yl)quinoline-8-carboxamide]
87	2.03	O=C(N[C@H]1CCCCC[C@@H]1O)c1cc(Cc2ccc(-n3cccn3)cc2)cc2cccnc12 [compound 7, N-[(1S,2S)-2-hydroxycycloheptyl]-6-[(4-pyrazol-1-ylphenyl)methyl]quinoline-8-carboxamide]
45	2.98	O=C(NC1CCOCC1)c1cc(Cc2ccc(-n3cccn3)cc2)cc2cccnc12 [compound 3, 6-[(4-pyrazol-1-ylphenyl)methyl]-N-tetrahydropyran-4-yl-quinoline-8-carboxamide]
86	0.438	Cc1nc(-c2ccc(Cc3cc(C(=O)N[C@H]4CCOC[C@@H]4O)c4ncccc4c3)cc2)co1 [compound 16, N-[(3R,4S)-3-hydroxytetrahydropyran-4-yl]-6-[[4-(2-methyloxazol-4-yl)phenyl]methyl]quinoline-8-carboxamide]
